Experimental data taken from BindingDB's records for doi:10.1007/s10822-022-00478-x (Roche Innovation Center Basel, F. Hoffmann-La Roche Ltd., 2022).

Target: cAMP and cAMP-inhibited cGMP 3',5'-cyclic phosphodiesterase 10A (Homo sapiens, UniProt Q9Y233)
Experiment: PDE10A assay
How it was run: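 Scintillation proximity readout of [3H]cGMP hydrolysis (50 nM final substrate, 15 min) by 2 ng/well human PDE10A after 15 min compound preincubation at RT, pH 7.5 with MgCl2. Four-parameter logistic fit gave IC50, reported as pIC50.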

In the case of `Cn1ncc(C(=O)N2CCOCC2)c1C(=O)Nc1cc2nc(N3CCCC3)nn2cn1` [Roche-Dataset for PDE10A, Compound 426], the IC50 is reported as 5 nM.

For `CC(C)OC(=O)c1c(C(=O)Nc2ccn3nc(-c4ccccc4)nc3c2)cnn1C` [Roche-Dataset for PDE10A, Compound 428], the IC50 was 15 nM.

`Cn1nc(N2CCCC2)nc1/C=C/c1nc(N2CCCC2)n(C)n1` [Roche-Dataset for PDE10A, Compound 429] gave an IC50 of 429 nM.

In the case of `CNC(=O)c1cc2[nH]c(-c3ccccc3)nc2cc1NC(=O)c1cc(C)n[nH]1` [Roche-Dataset for PDE10A, Compound 430], the IC50 is reported as 355 nM.

For `Cc1nc(C(F)(F)F)n2nc(CCc3nc(N4CCCC4)nn3C)nc2c1C` [Roche-Dataset for PDE10A, Compound 432], the IC50 was 7.54 nM.

Work on `Cn1ncc(Cl)c1C(=O)Nc1ccn2nc(-c3ccccc3)nc2c1` [Roche-Dataset for PDE10A, Compound 433] yielded an IC50 of 208 nM.

`O=C(Nc1ccnn1-c1ccccn1)c1nc(C2CC2)ccc1Nc1cncnc1` [Roche-Dataset for PDE10A, Compound 435] showed an IC50 of 3.43 nM.

In the case of `Cc1cnc(C)n2nc(CCc3nc(N4CCCC4)nn3C3CC3)nc12` [Roche-Dataset for PDE10A, Compound 436], the IC50 is reported as 18 nM.

For `O=C(Nc1ccn2nc(-c3ccccc3)nc2c1)c1conc1C(=O)NC1CC1` [Roche-Dataset for PDE10A, Compound 437], the IC50 was 150 nM.

In the case of `Cn1ncc(C(=O)N2CCC2)c1C(=O)Nc1cc(-c2ccccc2Cl)nn1C1CCCC1` [Roche-Dataset for PDE10A, Compound 438], the IC50 is reported as 879 nM.

Work on `CNC(=O)c1cc2[nH]c(-c3ccccc3)nc2cc1NC(=O)c1c(C(=O)N2CCC2)cnn1C` [Roche-Dataset for PDE10A, Compound 439] yielded an IC50 of 69 nM.

`Cc1ncc(C)n2nc(/C=C/c3nc(-c4cccn4C)nn3C)nc12` [Roche-Dataset for PDE10A, Compound 440] showed an IC50 of 12 nM.

Work on `CN(C)C(=O)c1cnn(C)c1C(=O)Nc1cc2nc(-c3ccccc3)nn2cn1` [Roche-Dataset for PDE10A, Compound 442] yielded an IC50 of 0.81 nM.

Work on `Cc1cnc(C)n2nc(/C=C/c3nc(N4CCCC4)n(C)n3)nc12` [Roche-Dataset for PDE10A, Compound 443] yielded an IC50 of 20 nM.

Work on `O=C(Nc1ccn(Cc2ccccc2)n1)c1nc(C2CC2)ccc1Nc1cncnc1` [Roche-Dataset for PDE10A, Compound 446] yielded an IC50 of 3.41 nM.

In the case of `Cc1ncc(C)n2nc(CCc3nc(N4CC[C@@H](C)C4)nn3C)nc12` [Roche-Dataset for PDE10A, Compound 447], the IC50 is reported as 28 nM.

Compound `Cc1cnccc1NC(=O)c1ccc2cc(-c3ccccc3)nn2c1` [Roche-Dataset for PDE10A, Compound 448] has an IC50 of 563 nM.

Work on `O=C(NCCN1CCCc2ccccc21)c1nc(C2CC2)cnc1Nc1cncnc1` [Roche-Dataset for PDE10A, Compound 449] yielded an IC50 of 46 nM.

For `CN(c1nc2cc(NC(=O)c3c(C(=O)N4CCC4)cnn3C)ccn2n1)C1CC1` [Roche-Dataset for PDE10A, Compound 450], the IC50 was 0.87 nM.

`O=C(NCCN1CCc2ccccc2C1=O)c1nc(C2CC2)cnc1Nc1cncnc1` [Roche-Dataset for PDE10A, Compound 451] showed an IC50 of 574 nM.

`CNC(=O)c1cc2[nH]c(-c3ccccc3)nc2cc1NC(=O)c1ccnn1C` [Roche-Dataset for PDE10A, Compound 452] gave an IC50 of 14 nM.

`CNC(=O)c1cc2[nH]c(-c3ccccc3)nc2cc1NC(=O)c1c(C(=O)N2CCOCC2)cnn1C` [Roche-Dataset for PDE10A, Compound 453] was tested, and the IC50 was 195 nM.

Work on `O=C(Nc1ccn2nc(-c3ccccc3)nc2c1)c1cc(Cl)ccn1` [Roche-Dataset for PDE10A, Compound 454] yielded an IC50 of 76 nM.

In the case of `Cc1ncc(C)n2nc(CCc3nc(C)n(-c4ccccc4)n3)nc12` [Roche-Dataset for PDE10A, Compound 456], the IC50 is reported as 748 nM.

`Cn1ncc(C(=O)N2CCOCC2)c1C(=O)N[C@@H]1CCn2cc(-c3ccccc3Cl)nc2C1` [Roche-Dataset for PDE10A, Compound 457] was tested, and the IC50 was 2410 nM.

For `Cn1ncc(C(=O)O)c1C(=O)Nc1ccn2nc(-c3cccnc3F)nc2c1` [Roche-Dataset for PDE10A, Compound 458], the IC50 was 66 nM.

Compound `CN(C)c1nc2cc(NC(=O)c3c(C(=O)N4CCC4)cnn3C)ccc2s1` [Roche-Dataset for PDE10A, Compound 461] has an IC50 of 3.12 nM.

In the case of `Cc1ccc2nc(OCc3nc(-c4ccccc4)cn3C)c(Cl)nc2c1` [Roche-Dataset for PDE10A, Compound 463], the IC50 is reported as 4.23 nM.

In the case of `Cn1cc(-c2ccccc2)nc1/C=C/c1ncc(Cl)nc1Cl` [Roche-Dataset for PDE10A, Compound 465], the IC50 is reported as 824 nM.

Compound `CNC(=O)c1cc2[nH]c(-c3ccccc3)nc2cc1NC(=O)c1ccnnc1` [Roche-Dataset for PDE10A, Compound 466] has an IC50 of 23 nM.

For `Cn1cc(-c2ccccc2)nc1CCc1ccccn1` [Roche-Dataset for PDE10A, Compound 467], the IC50 was 10000 nM.

For `Cn1nc(-c2ccc3ccccc3n2)cc1NC(=O)c1c(C(=O)N2CCC2)cnn1C` [Roche-Dataset for PDE10A, Compound 468], the IC50 was 0.91 nM.

`Cn1ncc(C(=O)N2CCC2)c1C(=O)Nc1ccc2nc(N3CCCC3)nn2c1` [Roche-Dataset for PDE10A, Compound 469] gave an IC50 of 0.48 nM.

With `CN(C)c1nc(OCc2nc3ccccc3n2C)nc2ccc(Cl)cc12` [Roche-Dataset for PDE10A, Compound 470] the IC50 was 119 nM.

For `O=C(Nc1ccncc1F)c1ccc2cc(-c3ccccc3)nn2c1` [Roche-Dataset for PDE10A, Compound 471], the IC50 was 933 nM.

`COc1ccccc1-c1cn2c(n1)C[C@H](NC(=O)c1c(C(=O)N(C)C)cnn1C)CC2` [Roche-Dataset for PDE10A, Compound 473] gave an IC50 of 8.21 nM.

For `Cc1cnc(C)n2nc(/C=C/c3nc(N4CCCC4)nn3C)nc12` [Roche-Dataset for PDE10A, Compound 474], the IC50 was 5.37 nM.

With `Cc1cc(C)n2nc(CCc3nc(N4CCCC4)nn3C3CC3)nc2n1` [Roche-Dataset for PDE10A, Compound 475] the IC50 was 8.2 nM.

`Cc1noc(C(F)(F)F)c1C(=O)Nc1ccn2nc(-c3ccccc3)nc2c1` [Roche-Dataset for PDE10A, Compound 478] showed an IC50 of 9330 nM.

`CCn1nccc1C(=O)Nc1cc2nc(-c3ccccc3)[nH]c2cc1C(=O)NC` [Roche-Dataset for PDE10A, Compound 482] gave an IC50 of 11 nM.

With `Cc1cnc(C)n2nc(CCc3nc(N4CCNC(=O)C4)nn3C)nc12` [Roche-Dataset for PDE10A, Compound 483] the IC50 was 848 nM.

`O=C(Nc1ccn(CCCC(F)(F)F)n1)c1nc(C2CC2)ccc1Nc1cncnc1` [Roche-Dataset for PDE10A, Compound 485] was tested, and the IC50 was 6.66 nM.

In the case of `CCOC(=O)c1cnn(C)c1C(=O)Nc1ccn2nc(N(C)C3CC3)nc2c1` [Roche-Dataset for PDE10A, Compound 486], the IC50 is reported as 58 nM.

`CN(C)c1nc2cc(NC(=O)c3c(C(=O)N4CCCC4)cnn3C)ccn2n1` [Roche-Dataset for PDE10A, Compound 489] showed an IC50 of 5.27 nM.

For `O=C1c2ccccc2C(=O)N1CCc1nc(-c2ccccn2)no1` [Roche-Dataset for PDE10A, Compound 490], the IC50 was 5450 nM.

`O=C(NCCc1cccc(C(F)(F)F)c1)c1nc(C2CC2)cnc1Nc1cncnc1` [Roche-Dataset for PDE10A, Compound 491] showed an IC50 of 83 nM.

For `CCN(C)c1nc2cc(NC(=O)c3c(C(=O)N4CCOCC4)cnn3C)ccn2n1` [Roche-Dataset for PDE10A, Compound 493], the IC50 was 5.55 nM.

Work on `Cc1ccccc1-c1cn2c(n1)C[C@H](NC(=O)c1c(C(=O)N3CCC3)cnn1C)CC2` [Roche-Dataset for PDE10A, Compound 495] yielded an IC50 of 7.85 nM.

`Cn1ncc(C(=O)N2CCOCC2)c1C(=O)Nc1ccn2nc(-n3ccnc3)nc2c1` [Roche-Dataset for PDE10A, Compound 496] gave an IC50 of 104 nM.

`Cc1c(Cl)cc(Cl)c2nc(CCc3nc4ccccc4n3C)nn12` [Roche-Dataset for PDE10A, Compound 497] was tested, and the IC50 was 61 nM.

For `O=C(Nc1ccn(CCC(F)(F)F)n1)c1nc(C2CC2)ccc1Nc1cncnc1` [Roche-Dataset for PDE10A, Compound 498], the IC50 was 9.67 nM.

`Cn1nc(N2CCCC2)nc1CCc1nc2cnc(C#N)cn2n1` [Roche-Dataset for PDE10A, Compound 500] was tested, and the IC50 was 4170 nM.

In the case of `CCOC(=O)c1cnn(C)c1C(=O)Nc1ccn2nc(N(C)CC)nc2c1` [Roche-Dataset for PDE10A, Compound 502], the IC50 is reported as 359 nM.

Compound `O=C(Nc1ccnn1-c1ccccc1)c1nc(C2CC2)ccc1Nc1cncnc1` [Roche-Dataset for PDE10A, Compound 507] has an IC50 of 0.87 nM.

In the case of `O=C(Nc1cnccc1C(=O)N1CC(F)(F)C1)c1nc(C2CC2)ccc1Nc1cncnc1` [Roche-Dataset for PDE10A, Compound 508], the IC50 is reported as 30 nM.

In the case of `Cc1c(Cl)ccc2nc(CCc3nc4ccc(Cl)c(C)n4n3)nn12` [Roche-Dataset for PDE10A, Compound 512], the IC50 is reported as 472 nM.

`CN(C)c1nc2cc(NC(=O)c3c(C(=O)N4CC(F)C4)cnn3C)ccn2n1` [Roche-Dataset for PDE10A, Compound 513] showed an IC50 of 20 nM.

Compound `COc1ncc(C2CC2)nc1C(=O)Nc1ccn2nc(-c3ccccc3)nc2c1` [Roche-Dataset for PDE10A, Compound 514] has an IC50 of 17 nM.

Compound `Cc1ncc(C)n2nc(CCc3nc(N4CCNCC4)nn3C)nc12` [Roche-Dataset for PDE10A, Compound 515] has an IC50 of 767 nM.

`O=C(Nc1ccn2nc(-c3ccccc3)nc2c1)c1cnc(Cl)c(Cl)c1` [Roche-Dataset for PDE10A, Compound 518] showed an IC50 of 1030 nM.

Compound `CSc1ncc(Nc2cncnc2)c(C(=O)Nc2cc(-c3ccccn3)nn2C)n1` [Roche-Dataset for PDE10A, Compound 519] has an IC50 of 1360 nM.

`CN(C)c1nc2cc(NC(=O)c3c(C(=O)N4CCC4)cnn3C)ccn2n1` [Roche-Dataset for PDE10A, Compound 520] was tested, and the IC50 was 2.77 nM.

In the case of `Cc1c(Cl)cc(Cl)c2nc(CCc3nc(N4CCCC4)no3)nn12` [Roche-Dataset for PDE10A, Compound 521], the IC50 is reported as 17 nM.

Compound `O=C(Nc1ccc2cc(-c3ccccc3)nn2c1)c1onc2ccc(Br)cc12` [Roche-Dataset for PDE10A, Compound 523] has an IC50 of 10 nM.
